Biological target: N-terminal active peptide segment (MI-N899) of POLQ with ATPase activity (Homo sapiens (Human), UniProt O75417)
Experiment: POLQ enzyme activity inhibition experiment (ATPase, NADH-coupled, OD 340 nm)
Format: biochemical
Settings: 100 nM POLQ (N), 100 μM ATP, 300 nM dT50
Procedure: The Envision microplate reader from Perkin Elmer Inc was used to measure the reduction of OD value of NADH at 340 nm, thus reflecting the enzyme activity. Experimental method: The POLQ enzyme was diluted to 100 nM with a reaction buffer (20 mM Tris HCl (pH 7.80), 80 mM KCl, 10 mM MgCl2, 1 mM DTT, 0.01% w/v bovine serum albumin, 0.01% v/v Tween-20, and 5% v/v glycerol). The compounds to be tested were diluted to different concentrations in dimethyl sulfoxide (DMSO) using the Echo 650 pipetting system, and transferred to a 384-well plate, 20 μL/well of 100 nM POLQ was added, and the mixture was incubated at room temperature for 15 minutes. A reaction mixture solution was formulated, and the concentration of each component in the reaction mixture solution was: 100 μM ATP, 300 nM […], 300 μM NADH, 6 mM PEP, 10 U/mL lactate dehydrogenase and 20 U/mL pyruvate kinase. 20 μL/well of reaction mixture solution was added to start the enzyme reaction. […] The concentration range was from 10 μM to 0.0005 μM, and the final concentration of DMSO in the system was 0.2% v/v. The 384-well plate was reacted at room temperature for 20 minutes, and then the OD value at 340 nm was read with an Envision microplate reader. The inhibition rate was calculated, and XLfit software was used to perform fitting to obtain IC50 of the compounds. In the experiment, a blank group and a DMSO group were set up, respectively.

N-terminal active peptide segment (MI-N899) of POLQ with ATPase activity, sequence (O75417 1-899 limits assumed): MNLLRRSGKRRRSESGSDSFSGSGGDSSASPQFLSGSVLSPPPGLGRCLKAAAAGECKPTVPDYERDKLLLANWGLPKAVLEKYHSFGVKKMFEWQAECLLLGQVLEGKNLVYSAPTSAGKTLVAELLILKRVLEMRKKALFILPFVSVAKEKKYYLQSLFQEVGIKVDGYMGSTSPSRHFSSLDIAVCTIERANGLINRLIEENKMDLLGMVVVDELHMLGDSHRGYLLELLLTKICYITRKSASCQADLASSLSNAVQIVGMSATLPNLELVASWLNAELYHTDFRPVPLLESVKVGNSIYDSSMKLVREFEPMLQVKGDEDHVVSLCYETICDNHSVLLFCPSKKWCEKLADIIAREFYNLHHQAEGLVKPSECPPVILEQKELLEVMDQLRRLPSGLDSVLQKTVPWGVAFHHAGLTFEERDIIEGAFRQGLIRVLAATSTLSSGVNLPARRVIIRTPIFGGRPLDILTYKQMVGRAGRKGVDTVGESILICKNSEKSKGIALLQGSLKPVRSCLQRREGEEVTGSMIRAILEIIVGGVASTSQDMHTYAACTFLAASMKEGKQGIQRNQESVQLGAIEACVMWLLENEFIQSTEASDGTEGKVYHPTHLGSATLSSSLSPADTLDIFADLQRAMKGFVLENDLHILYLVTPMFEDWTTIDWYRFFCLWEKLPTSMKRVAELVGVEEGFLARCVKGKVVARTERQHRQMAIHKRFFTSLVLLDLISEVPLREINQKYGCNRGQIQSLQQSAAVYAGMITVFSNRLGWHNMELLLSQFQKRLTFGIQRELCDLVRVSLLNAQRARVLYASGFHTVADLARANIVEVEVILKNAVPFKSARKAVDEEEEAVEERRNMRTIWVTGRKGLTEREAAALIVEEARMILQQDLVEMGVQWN

| IC50 [nM] | SMILES |
| --- | --- |
| < 100 | COc1ccccc1-c1ccccc1C(=O)Nc1nc2ncc(-c3ccc(C#N)cc3)nc2s1 [Compound 55, N-(6-(4-cyanophenyl)thiazolo[4,5-b]pyrazin-2-yl)-2′-methoxy-[1,1′-biphenyl]-2-carboxamide] |
| < 100 | COc1ccccc1-c1cn2ncnc2cc1C(=O)Nc1nc2ncc(-c3ccc(C#N)cc3)nc2s1 [Compound 57, N-(6-(4-cyanophenyl)thiazolo[4,5-b]pyrazin-2-yl)-6-(2-methoxyphenyl)-[1,2,4]triazolo[1,5-a]pyridine-7-carboxamide] |
| < 100 | C#Cc1ccccc1-c1nc(C)ncc1C(=O)Nc1nc2ncc(-c3ccc(C#N)cc3)nc2s1 [Compound 59, N-(6-(4-cyanophenyl)thiazolo[4,5-b]pyrazin-2-yl)-4-(2-ethynylphenyl)-2-methylpyrimidine-5-carboxamide] |
| < 100 | C#Cc1ccccc1-c1cc(C)ncc1C(=O)Nc1nc2ncc(-c3ccc(C#N)cc3)cc2s1 [Compound 60, N-(6-(4-cyanophenyl)thiazolo[4,5-b]pyridin-2-yl)-4-(2-ethynylphenyl)-6-methylpyridine-3-carboxamide] |

Further lines, the compound ahead of its results:

| SMILES | IC50 [nM] |
| --- | --- |
| COc1ccccc1-c1cn2ccnc2cc1C(=O)Nc1nc2ncc(-c3ccc(C#N)cc3)nc2s1 [Compound 41, N-(6-(4-cyanophenyl)thiazolo[4,5-b]pyrazin-2-yl)-6-(2-methoxyphenyl)imidazo[1,2-a]pyridine-7-carboxamide] | < 100 |
| C#Cc1ccccc1-c1cc(Cl)ncc1C(=O)Nc1nc2ncc(-c3ccc(C#N)cc3)nc2s1 [Compound 43, 6-chloro-N-(6-(4-cyanophenyl)thiazolo[4,5-b]pyrazin-2-yl)-4-(2-ethynylphenyl)pyridine-3-carboxamide] | < 100 |
| COc1ncccc1-c1cc(C)ncc1C(=O)Nc1nc2ncc(-c3ccc(C#N)cc3)nc2s1 [Compound 44, N-(6-(4-cyanophenyl)thiazolo[4,5-b]pyrazin-2-yl)-2-methoxy-6′-methyl-[3,4′-bipyridine]-3′-carboxamide] | < 100 |
| COc1cnccc1-c1cc(C)ncc1C(=O)Nc1nc2ncc(-c3ccc(C#N)cc3)nc2s1 [Compound 45, N-(6-(4-cyanophenyl)thiazolo[4,5-b]pyrazin-2-yl)-3′-methoxy-6-methyl-[4,4′-bipyridine]-3-carboxamide] | < 100 |
| C#Cc1cc(F)ccc1-c1cc(C)ncc1C(=O)Nc1nc2ncc(-c3ccc(C#N)cc3)nc2s1 [Compound 47, N-(6-(4-cyanophenyl)thiazolo[4,5-b]pyrazin-2-yl)-4-(2-ethynyl-4-fluorophenyl)-6-methylpyridine-3-carboxamide] | < 100 |
| C#Cc1cccc(F)c1-c1cc(C)ncc1C(=O)Nc1nc2ncc(-c3ccc(C#N)cc3)nc2s1 [Compound 49, N-(6-(4-cyanophenyl)thiazolo[4,5-b]pyrazin-2-yl)-4-(2-ethynyl-6-fluorophenyl)-6-methylpyridine-3-carboxamide] | < 100 |
| COc1ccccc1-c1ncccc1C(=O)Nc1nc2ncc(-c3ccc(C#N)cc3)nc2s1 [Compound 50, N-(6-(4-cyanophenyl)thiazolo[4,5-b]pyrazin-2-yl)-2-(2-methoxyphenyl)pyridine-3-carboxamide] | < 100 |
| COc1ccccc1-c1cncnc1C(=O)Nc1nc2ncc(-c3ccc(C#N)cc3)nc2s1 [Compound 52, N-(6-(4-cyanophenyl)thiazolo[4,5-b]pyrazin-2-yl)-5-(2-methoxyphenyl)pyrimidine-4-carboxamide] | < 100 |
| COc1ccccc1-c1cnc(C(F)(F)F)cc1C(=O)Nc1nc2ncc(-c3ccc(C#N)cc3)nc2s1 [Compound 53, N-(6-(4-cyanophenyl)thiazolo[4,5-b]pyrazin-2-yl)-5-(2-methoxyphenyl)-2-(trifluoromethyl)pyridine-4-carboxamide] | 100 to 500 |
| COc1ccccc1-c1cncc(F)c1C(=O)Nc1nc2ncc(-c3ccc(C#N)cc3)nc2s1 [Compound 54, N-(6-(4-cyanophenyl)thiazolo[4,5-b]pyrazin-2-yl)-3-fluoro-5-(2-methoxyphenyl)pyridine-4-carboxamide] | < 100 |

— patent publication US20250122221A1 (NANJING ZAIMING PHARMACEUTICAL CO., LTD., priority 2022, published 2025)
